Assays:
Assay type in all cases: in vivo
[1] = system: bromegrass, downy (downy bromegrass, Bromus tectorum); assay: Test C pre-/postemergence: bromegrass, downy
In short: (§1)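 Visual injury scored 0–100 (100 = complete control) against untreated controls after 13–15 greenhouse days. Surfactant-containing solvent formulations applied either to soil after sowing (loam/sand) or over 1- to 4-leaf plants, 2–18 cm tall.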

[2] = system: foxtail, green (green foxtail, Setaria viridis); assay: Test C pre-/postemergence: foxtail, green
In short: as §1

[3] = system: surinam grass (Brachiaria decumbens); assay: Test C pre-/postemergence: surinam grass
In short: as §1

[4] = system: cocklebur (common cocklebur, Xanthium strumarium); assay: Test C pre-/postemergence: cocklebur
In short: as §1

[5] = system: windgrass (Apera spica-venti); assay: Test C postemergence: windgrass
In short: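 Visual ratings of 0 (no effect) to 100 (complete control) were made against controls 13-15 days after a postemergence spray, with plants kept in a greenhouse. Plants were 2-18 cm tall (1- to 4-leaf stage) in Redi-Earth peat/vermiculite medium at treatment.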

[6] = system: field violet (Viola arvensis); assay: Test D pre-/postemergence: field violet; details: Postemergence; for Plant response rating, Field Violet: scale 0 to 100
In short: (§2)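 Visual ratings from 0 (no effect) to 100 (complete control) were made 14–21 days after treatment, relative to controls. Applications were preemergence to seeds in silt loam, or postemergence to 2–18 cm (1–4 leaf) plants in peat-based medium. Compounds were formulated in a surfactant-containing non-phytotoxic solvent.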

[7] = system: barley, spring (spring barley, Hordeum vulgare); assay: Test D pre-/postemergence: barley, spring; details: Postemergence; for Plant response rating, Barley, Spring: scale 0 to 100
In short: as §2

[8] = system: wheat, winter (winter wheat, Triticum aestivum); assay: Test D pre-/postemergence: wheat, winter; details: Postemergence; for Plant response rating, Wheat, Winter: scale 0 to 100
In short: as §2

[9] = Postemergence, 31 g ai/ha, scale 0 to 100 (0 no effect, 100 complete control)
[10] = Postemergence, 62 g ai/ha, scale 0 to 100 (0 no effect, 100 complete control)
[11] = Postemergence, 125 g ai/ha, scale 0 to 100, 0 no effect, 100 complete control
[12] = Postemergence, 250 g ai/ha, scale 0 to 100
[13] = Preemergence, 31 g ai/ha, scale of 0 to 100, 0 is no effect, 100 is complete control
[14] = Preemergence, 62 g ai/ha, scale of 0 to 100, 0 is no effect, 100 is complete control
[15] = Preemergence, 125 g ai/ha, scale 0 to 100, 0 no effect, 100 complete control
[16] = Preemergence, 250 g ai/ha, scale 0 to 100, 0 no effect, 100 complete control
[17] = 31 g ai/ha, scale 0 to 100 (0 no effect, 100 complete control)
[18] = 62 g ai/ha, scale 0 to 100 (0 no effect, 100 complete control)
[19] = 125 g ai/ha, scale 0 to 100, 0 no effect, 100 complete control
[20] = 250 g ai/ha, scale 0 to 100 (0 no effect, 100 complete control)

`Cc1nn(-c2ccc(F)c(F)c2)nc1Oc1ccnc(C(F)(F)F)c1` [Compound 145] was tested, and the “Plant response rating, Bromegrass, Downy” value [1, 9] was 5, the “Plant response rating, Bromegrass, Downy” value [1, 10] was 10 and the “Plant response rating, Bromegrass, Downy” value [1, 11] was 20. For the same molecule, the “Plant response rating, Bromegrass, Downy” value [1, 12] was 25, the “Plant response rating, Bromegrass, Downy” value [1, 13] was 5 and the “Plant response rating, Bromegrass, Downy” value [1, 14] was 20. The “Plant response rating, Bromegrass, Downy” value [1, 15] was 70, the “Plant response rating, Bromegrass, Downy” value [1, 16] was 85 and the “Plant response rating, Foxtail, Green” value [2, 9] was 98. For the same molecule, the “Plant response rating, Foxtail, Green” value [2, 10] was 100, the “Plant response rating, Foxtail, Green” value [2, 11] was 100 and the “Plant response rating, Foxtail, Green” value [2, 12] was 100. For the same molecule, the “Plant response rating, Foxtail, Green” value [2, 13] was 90, the “Plant response rating, Foxtail, Green” value [2, 14] was 90 and the “Plant response rating, Foxtail, Green” value [2, 15] was 90. For the same molecule, the “Plant response rating, Foxtail, Green” value [2, 16] was 90, the “Plant response rating, Surinam Grass” value [3, 9] was 25 and the “Plant response rating, Surinam Grass” value [3, 10] was 30. The “Plant response rating, Surinam Grass” value [3, 11] was 60, the “Plant response rating, Surinam Grass” value [3, 12] was 75 and the “Plant response rating, Surinam Grass” value [3, 13] was 35. For the same molecule, the “Plant response rating, Surinam Grass” value [3, 14] was 55, the “Plant response rating, Surinam Grass” value [3, 15] was 100 and the “Plant response rating, Surinam Grass” value [3, 16] was 100. The “Plant response rating, Cocklebur” value [4, 9] was 10, the “Plant response rating, Cocklebur” value [4, 10] was 15 and the “Plant response rating, Cocklebur” value [4, 11] was 65. For the same molecule, the “Plant response rating, Cocklebur” value [4, 12] was 65, the “Plant response rating, Cocklebur” value [4, 13] was 0 and the “Plant response rating, Cocklebur” value [4, 14] was 0. The “Plant response rating, Cocklebur” value [4, 15] was 10, the “Plant response rating, Windgrass” value [5, 17] was 50 and the “Plant response rating, Windgrass” value [5, 18] was 70. For the same molecule, the “Plant response rating, Windgrass” value [5, 19] was 90, the “Plant response rating, Windgrass” value ([5]; 250 g ai/ha, scale 0 to 100) was 90 and the “Plant response rating: Field Violet” value [6, 17] was 75. For the same molecule, the “Plant response rating: Field Violet” value [6, 18] was 95, the “Plant response rating: Field Violet” value [6, 19] was 95 and the “Plant response rating, Field Violet” value ([6]; 8 g ai/ha) was 70. The “Plant response rating, Field Violet” value ([6]; 16 g ai/ha) was 80, the “Plant response rating: Barley, Spring” value [7, 17] was 10 and the “Plant response rating: Barley, Spring” value [7, 18] was 15. For the same molecule, the “Plant response rating: Barley, Spring” value [7, 19] was 20, the “Plant response rating, Barley, Spring” value ([7]; 8 g ai/ha) was 5 and the “Plant response rating, Barley, Spring” value ([7]; 16 g ai/ha) was 10. The “Plant response rating: Wheat, Winter” value [8, 17] was 10, the “Plant response rating: Wheat, Winter” value [8, 18] was 10 and the “Plant response rating: Wheat, Winter” value [8, 19] was 10. For the same molecule, the “Plant response rating, Wheat, Winter” value ([8]; 8 g ai/ha) was 5 and the “Plant response rating, Wheat, Winter” value ([8]; 16 g ai/ha) was 5.

In the case of `Cc1nn(-c2ccnc(C(F)(F)F)c2)nc1Cc1ccnc(C(F)(F)F)c1` [Compound 137], the “Plant response rating, Bromegrass, Downy” value [1, 9] was 10, the “Plant response rating, Bromegrass, Downy” value [1, 10] was 30 and the “Plant response rating, Bromegrass, Downy” value [1, 11] was 60. For the same molecule, the “Plant response rating, Bromegrass, Downy” value [1, 12] was 85, the “Plant response rating, Foxtail, Green” value [2, 9] was 80 and the “Plant response rating, Foxtail, Green” value [2, 10] was 85. The “Plant response rating, Foxtail, Green” value [2, 11] was 95, the “Plant response rating, Foxtail, Green” value [2, 12] was 95 and the “Plant response rating, Surinam Grass” value [3, 9] was 40. The “Plant response rating, Surinam Grass” value [3, 10] was 45, the “Plant response rating, Surinam Grass” value [3, 11] was 45 and the “Plant response rating, Surinam Grass” value [3, 12] was 45. For the same molecule, the “Plant response rating, Cocklebur” value [4, 9] was 45, the “Plant response rating, Cocklebur” value [4, 10] was 50 and the “Plant response rating, Cocklebur” value [4, 12] was 60. The “Plant response rating, Windgrass” value [5, 17] was 40, the “Plant response rating, Windgrass” value [5, 18] was 50 and the “Plant response rating, Windgrass” value [5, 19] was 70. For the same molecule, the “Plant response rating, Windgrass” value ([5]; 250 g ai/ha, scale 0 to 100) was 90, the “Plant response rating: Field Violet” value [6, 17] was 70 and the “Plant response rating: Field Violet” value [6, 18] was 85. For the same molecule, the “Plant response rating: Field Violet” value [6, 19] was 90, the “Plant response rating: Field Violet” value [6, 20] was 95 and the “Plant response rating, Field Violet” value ([6]; 16 g ai/ha) was 50. For the same molecule, the “Plant response rating: Barley, Spring” value [7, 17] was 15, the “Plant response rating: Barley, Spring” value [7, 18] was 25 and the “Plant response rating: Barley, Spring” value [7, 19] was 30. The “Plant response rating: Barley, Spring” value [7, 20] was 40, the “Plant response rating, Barley, Spring” value ([7]; 16 g ai/ha) was 10 and the “Plant response rating: Wheat, Winter” value [8, 17] was 5. For the same molecule, the “Plant response rating: Wheat, Winter” value [8, 18] was 10, the “Plant response rating: Wheat, Winter” value [8, 19] was 15 and the “Plant response rating: Wheat, Winter” value [8, 20] was 20. The “Plant response rating, Wheat, Winter” value ([8]; 16 g ai/ha) was 5.

— patent US9302999B2, “Substituted triazoles as herbicides” (E. I. DU PONT DE NEMOURS AND COMPANY, priority 2012, dated 2016)
